According to patent US8106092B2, “Treatment of solid cancers” (priority 2004, dated 2012):

Key:
Lewis lung-OVA tumors = experiment: PEP005-mediated cure of primary Lewis lung-OVA tumors, challenge with secondary Lewis lung-OVA; format: in vivo, C57BL/6 mice
Procedure: FIGS. 4A to D are graphical representations showing protection against secondary tumors following cure of primary tumors with PEP005. (A) C57BL/6 mice received 5×10^5 Lewis lung-OVA s.c. on the back on day less 7 (d−7). When these primary tumors had reached an average 13.6 mm^2±1.8 SE (range 10-25 mm^2) on d0 they were treated once with 16 μg of PEP005 delivered i.t. In eight mice these primary tumors were cured, and these mice received 5×10^5 Lewis lung-OVA s.c. on d4 on the opposite flank from the primary tumors. The emergence of these secondary tumors was monitored over time (PEP005 cured). In a parallel group of animals (n=5) PEP005 treatment regressed the primary tumors, but after 11-13 days the primary tumors re-emerged. These animals also received secondary tumors as above and their emergence was again monitored over time (PEP005 regressed). Two control groups were included. One group (n=6) received no primary tumors, but was treated s.c. with PEP005 and received secondary tumors on the opposite flank (white triangles, PEP005 s.c.). The second control group (n=8) also received no primary tumors, was not treated with PEP005, and received secondary tumors as above (Controls). […] The experiment in (A) was repeated in Foxnl^nu mice; PEP005 cured (n=4), PEP005 regressed (n=7), Control (n=7). A PEP005 s.c. group was not included. (C) Treatment of primary Lewis lung-OVA with PEP005 induced SIINFEKL-specific CD8^+ T-cell responses using IFNγ ELISPOT when the secondary tumors had emerged or on d50. (D) Reduced growth of B16-OVA lung metastases following successful treatment of s.c. B16-OVA tumors with PEP005. C57BL/6 mice received 5×10^5 B16-OVA s.c. on the back on d−6. When these primary tumors had reached 10-20 mm^2 on d0, they were treated once with 18 μg of PEP005 delivered i.t., which cured the tumors in eight mice (PEP005 cured) and regressed the tumors in five mice (PEP005 regressed). Controls as above. Secondary B16-OVA (10^5) were injected i.v. on d6 and animals were sacrificed on d27 and lung metastases counted.
B16 and B16 cells stably expressing ovalbumin (B16-OVA)were grown s.c. in C57BL/6 mice as described previously (Ogbourne et al, Cancer Res 64:2833-2839, 2004; Anraku et al, J Virol 76:3791-3799, 2002). Lung metastases were established as described (Zeh et al, J Immunol 162:989-994, 1999). Lewis lung-OVA (Nelson et al, J Immunol 166:5557-5566, 2001) were grown s.c. in C57BL/6 as described (Lenarczyk et al, Vaccine 22:963-974, 2004).
Tumors were treated by topical or intratumoral (i.t.) injection (using a 26 gauge needle) of (i) PEP0005 dissolved in acetone and then RPMI 1640 (final concentration of acetone 4%), or (ii) PEP005 formulated in PEG400. […]

[1] = system: SIINFEKL [SEQ ID NO:2]-specific CD8^+ T-cells; experiment: SIINFEKL-specific CD8+ T-cells by IFNγ ELISPOT after i.t. PEP005 treatment of Lewis lung-OVA; format: in vivo, C57BL/6 mice
Procedure: FIGS. 4A to D are graphical representations showing protection against secondary tumors following cure of primary tumors with PEP005. (A) C57BL/6 mice received 5×10^5 Lewis lung-OVA s.c. on the back on day less 7 (d−7). When these primary tumors had reached an average 13.6 mm^2±1.8 SE (range 10-25 mm^2) on d0 they were treated once with 16 μg of PEP005 delivered i.t. In eight mice these primary tumors were cured, and these mice received 5×10^5 Lewis lung-OVA s.c. on d4 on the opposite flank from the primary tumors. The emergence of these secondary tumors was monitored over time (PEP005 cured). In a parallel group of animals (n=5) PEP005 treatment regressed the primary tumors, but after 11-13 days the primary tumors re-emerged. These animals also received secondary tumors as above and their emergence was again monitored over time (PEP005 regressed). Two control groups were included. One group (n=6) received no primary tumors, but was treated s.c. with PEP005 and received secondary tumors on the opposite flank (white triangles, PEP005 s.c.). […] Secondary B16-OVA (10^5) were injected i.v. on d6 and animals were sacrificed on d27 and lung metastases counted.
Mouse splenocytes were analyzed by ex vivo IFNγ ELISPOT essentially as described previously (Le et al, Vaccine 19:4669-4675, 2001), but using MultiScreen-IP plates (Millipore) and 25 IU/ml of recombinant human IL-2 (Cetus).

C/C=C(/C)C(=O)O[C@H]1C(C)=C[C@]23C(=O)[C@@H](C=C(CO)[C@@H](O)[C@]12O)[C@H]1[C@@H](C[C@H]3C)C1(C)C [PEP005, ingenol-3-angelate]
growth of secondary tumors (Lewis lung-OVA tumors; PEP005 regressed but failed to cure the primary tumors (n=5), not significant): slightly delayed
growth of secondary tumors (Lewis lung-OVA tumors; no primary tumors, PEP005 s.c. at a site distant from the secondary tumors): failed to reduce the growth of the secondary tumors
animals in which secondary tumors failed to appear (Lewis lung-OVA tumors; primary tumor cured by i.t. PEP005 (n=8), secondary inoculated d4 on opposite flank): 50%
emergence of secondary tumors (Lewis lung-OVA tumors; primary tumor cured by i.t. PEP005 (n=8), log rank p=0.002): significantly delayed
number of SIINFEKL-specific CD8+ T-cells vs untreated control animals ([1]; PEP005 injected s.c. rather than into a tumor): failed to increase
SIINFEKL-specific CD8+ T-cells vs control animals ([1]; primary tumors cured by PEP005, p=0.008 unpaired t-Test): significantly more
